Test results as given in patent publication US6562819B2, “Compounds for inhibition of ceramide-mediated signal transduction” (The Regents of the University of California, priority 1994, dated 2003).
Like-named read-outs stand apart in the source and are kept apart here.

Legend:
TNF-α production [1] = assay: LPS induced TNF-α production by human macrophages; assay type: cell-based; settings: 0.1-1000 μM; result in words
Protocol: Human macrophages were cultured in 96 well microtiter plates and incubated with LPS. μAliquots of the stimulated cells were then incubated with, respectively, 0.1, 1, 10, 100 or 1000 μM of 1I-49, compound 37 and a commercially available isoquinoline (6,7-dimethoxy-1(2H)-isoquinoline from μAldrich Chemical; labelled S52-626-6 in FIG. 10) which, like the compounds of the invention, has an oxygen ortho to a ring nitrogen but, unlike the compounds of the invention, lacks a side chain substituent as described above (1L-49 is representative of the isoquinolone compounds of the invention having the side chain substituents described elsewhere above). The inhibitory efficacy of each compound was measured as a function of TNF-α reduction in μg/ml.

TNF-α production [2] = assay: ELISA for TNF-α production by LPS stimulated human monocytes; assay type: cell-based; settings: Concentration of compound which inhibited the product of TNFα by 50% of control, read-out: TNFαIC50
Protocol: Peripheral blood mononuclear cells were isolated from normal human blood on Hypaque-Ficoll density gradients. A portion of the isolated cells were further purified by adherence to gelatin coated flasks.
100 μl aliquots of monocytes were placed onto 96 well microtiter plates at a density of 5×10^5 cells/ml in RPMI-1640 medium containing 10% fetal bovine serum. After incubation for 24 hrs., various concentrations of the test compounds (FIG. 5) were added to the plated cells in a volume of 100 μl and incubated for 1 hr. After incubation, 1 μg/ml of LPS was added to each well.
18 hrs. after exposure of the plated cells to LPS, 100 μl of medium was collected from each well and assayed (by ELISA) for release of TNF-α, using recombinant human TNF as a standard. The sensitivity of the assay ranged from 10-100 pg/ml.

Row | IC50 (TNF-α production [2]; Monocyte) [µM] | melting point | IC50 (TNF-α production [2]) [µM] | Compound | inhibition of LPS induced TNF-α production (TNF-α production [1])
1 | 55 |  |  | CCOC(=O)CCCn1c(=O)c2ccccc2n(C)c1=O [Compound 52, Ethyl 1-Methyl-1,4-dihydro-2,4-dioxo-3(2H)-quinazolinebutanoate] | 
2 |  |  | 5 | CCCn1c(=O)n(CCCC(=O)OCC)c(=O)c2c1ncn2C [Compound 31, ethyl 4-(2,3,6,7-tetrahydro-2,6-dioxo-7-methyl-3-n-propyl-1H-purin-1-yl)butonoic acid] | 

Continued, compound first:

Row | Compound | IC50 (TNF-α production [2]; Monocyte) [µM] | melting point | IC50 (TNF-α production [2]) [µM] | inhibition of LPS induced TNF-α production (TNF-α production [1])
3 | COc1cc2cc[nH]c(=O)c2cc1OC [S52, 626-6, 6,7-dimethoxy-1(2H)-isoquinoline] |  |  |  | mild inhibitory activity
4 | Cn1c(=O)[nH]c(=O)c2[nH]c(S)nc21 [Compound 25, 3-Methyl-8-thiouric Acid] | > 200 | > 320 °C |  | 
5 | CCCCCCn1c(=O)c2[nH]c(=O)[nH]c2n(C)c1=O [Compound 24, 1-n-Hexyl-3-methyluric Acid] | 50 | > 295 °C (dec.) |  | 
